Experimental data published in patent US10131679B2, “Substituted dihydropyrrolopyrazole compound” (UBE INDUSTRIES, LTD., priority 2014, dated 2018).

What was measured:
CDK7 = target: T1, CDK7 (Homo sapiens, UniProt P50613); experiment: CDK7 enzyme inhibition test; type: biochemical; settings: Ki=IC50/(1+S/Km); 33P bound to MBP, [γ-33P]ATP, 30° C. for 20 minutes; read-out: Ki value of CDK7 inhibitory activity
T1 construct: purchased Carna Biosciences, Inc. 04-108
Method in brief: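 Recombinant CDK7 with MBP substrate and [γ-33P]ATP (500 μM solution, diluted into the mix) in HEPES pH 7.4/DTT/Triton X-100/MgCl2, 20 min at 30 °C. TCA-precipitated 33P-MBP counted by scintillation; IC50 from inhibition, Ki = IC50/(1+S/Km).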

[1] = tested on: mouse imiquimod-induced psoriasis model; experiment: Ear thickening suppression test using mouse imiquimod-induced psoriasis model; type: in vivo; settings: topical, 120 h, application of a 0.01% methanol solution for 4 days, thickness measured on day 5, BALB/c mice, read-out: rate of inhibition of increase in right auricle thickness
Method in brief: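 Female BALB/c mice received test compound topically or orally, then 5 mg imiquimod cream (5%) on the right auricle 60 minutes later, daily for 4 days. Ear thickness was measured on day 5. Inhibition (%) of thickening was calculated relative to the solvent group, taken as 100%.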

T1 sequence (P50613 whole entry): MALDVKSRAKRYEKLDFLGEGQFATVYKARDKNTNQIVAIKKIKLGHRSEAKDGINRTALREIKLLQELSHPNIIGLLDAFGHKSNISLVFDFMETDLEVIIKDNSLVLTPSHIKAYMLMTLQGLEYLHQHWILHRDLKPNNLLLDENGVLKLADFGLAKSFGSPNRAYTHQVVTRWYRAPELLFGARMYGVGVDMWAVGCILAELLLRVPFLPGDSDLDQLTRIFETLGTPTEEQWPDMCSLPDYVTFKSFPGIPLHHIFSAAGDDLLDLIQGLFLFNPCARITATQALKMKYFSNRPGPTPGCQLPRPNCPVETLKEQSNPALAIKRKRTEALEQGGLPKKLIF
T1 sequence (P51946 whole entry partner): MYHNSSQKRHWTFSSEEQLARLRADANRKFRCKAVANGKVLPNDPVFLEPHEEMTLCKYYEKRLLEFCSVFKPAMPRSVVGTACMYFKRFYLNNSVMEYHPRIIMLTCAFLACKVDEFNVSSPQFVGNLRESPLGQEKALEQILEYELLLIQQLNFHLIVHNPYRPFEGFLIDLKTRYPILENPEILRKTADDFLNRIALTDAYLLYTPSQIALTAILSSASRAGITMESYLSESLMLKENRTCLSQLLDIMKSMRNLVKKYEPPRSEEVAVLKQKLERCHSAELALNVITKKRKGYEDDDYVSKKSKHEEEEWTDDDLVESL
T1 sequence (P51948 whole entry partner): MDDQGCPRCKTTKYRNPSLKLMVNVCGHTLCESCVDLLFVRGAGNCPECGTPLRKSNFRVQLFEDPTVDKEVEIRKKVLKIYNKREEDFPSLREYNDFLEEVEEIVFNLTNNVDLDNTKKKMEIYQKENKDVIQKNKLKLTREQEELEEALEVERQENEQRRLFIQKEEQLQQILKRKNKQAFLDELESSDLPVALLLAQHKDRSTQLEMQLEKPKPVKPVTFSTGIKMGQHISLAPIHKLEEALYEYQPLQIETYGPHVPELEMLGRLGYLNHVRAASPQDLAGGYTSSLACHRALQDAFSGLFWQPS

CC(C)(O)C[C@@H](NC(=O)N1Cc2c(NC(=O)C3([Si](C)(C)C)CCC3)n[nH]c2C1(C)C)c1ccccc1 [IV-299, (R)—N-(3-Hydroxy-3-methyl-1-phenylbutyl)-6,6-dimethyl-3-[1-(trimethylsilyl)cyclobutanecarboxamido]-4,6-dihydropyrrolo[3,4-c]pyrazole-5(1H)-carboxamide] showed a Ki (CDK7) of at most 50 nM and an inhibition in vivo at 0.01 % [1] of at least 50%.

In the case of CC1(C)c2[nH]nc(NC(=O)C3([Si](C)(C)C)CCC3)c2CN1C(=O)N[C@H](CC1(O)CC1)c1ccccc1 [IV-743, (R)—N-[2-(1-Hydroxycyclopropyl)-1-phenylethyl]-6,6-dimethyl-3-[1-(trimethylsilyl)cyclobutanecarboxamido]-4,6-dihydropyrrolo[3,4-c]pyrazole-5(1H)-carboxamide], the Ki (CDK7) is reported as at most 50 nM and the inhibition in vivo at 0.01 % [1] is reported as at least 50%.

For CC(C)(O)C[C@@H](NC(=O)N1Cc2c(NC(=O)C3([Si](C)(C)C)CCC3)n[nH]c2C1(C)C)c1cccc(F)c1 [IV-911, (R)—N-[1-(3-Fluorophenyl)-3-hydroxy-3-methylbutyl]-6,6-dimethyl-3-[1-(trimethylsilyl)cyclobutanecarboxamido]-4,6-dihydropyrrolo[3,4-c]pyrazole-5(1H)-carboxamide], the Ki (CDK7) was at most 50 nM and the inhibition in vivo at 0.01 % [1] was at least 50%.

In the case of CC(C)(O)C[C@@H](NC(=O)N1Cc2c(NC(=O)C3([Si](C)(C)C)CCC3)n[nH]c2C1(C)C)c1ccc(F)cc1 [IV-939, (R)—N-[1-(4-Fluorophenyl)-3-hydroxy-3-methylbutyl]-6,6-dimethyl-3-[1-(trimethylsilyl)cyclobutanecarboxamido]-4,6-dihydropyrrolo[3,4-c]pyrazole-5(1H)-carboxamide], the Ki (CDK7) is reported as at most 50 nM and the inhibition in vivo at 0.01 % [1] is reported as at least 50%.

Work on CO[C@@H](C(=O)N1Cc2c(NC(=O)C3([Si](C)(C)C)CCC3)n[nH]c2C1(C)C)c1ccccc1 [IV-1175, (R)—N-[5-(2-Methoxy-2-phenylacetyl)-6,6-dimethyl-1,4,5,6-tetrahydropyrrolo[3,4-c]pyrazol-3-yl]-1-(trimethylsilyl)cyclobutanecarboxamide] yielded a Ki (CDK7) of at most 50 nM and an inhibition in vivo at 0.01 % [1] of at least 50%.

Compound CC[Si](C)(C)C1(C(=O)Nc2n[nH]c3c2CN(C(=O)[C@H](OC)c2ccccc2)C3(C)C)CCC1 [IV-1178, (R)-1-(Ethyldimethylsilyl)-N-[5-(2-methoxy-2-phenylacetyl)-6,6-dimethyl-1,4,5,6-tetrahydropyrrolo[3,4-c]pyrazol-3-yl] cyclobutanecarboxamide] has a Ki (CDK7) of at most 50 nM and an inhibition in vivo at 0.01 % [1] of at least 50%.

CC1(C)c2[nH]nc(NC(=O)C3([Si](C)(C)C)CCC3)c2CN1C(=O)[C@H](OC(F)F)c1ccccc1 [IV-1180, (R)—N-{5-[2-(Difluoromethoxy)-2-phenylacetyl]-6,6-dimethyl-1,4,5,6-tetrahydropyrrolo[3,4-c]pyrazol-3-yl}-1-(trimethylsilyl)cyclobutanecarboxamide] showed a Ki (CDK7) of at most 50 nM and an inhibition in vivo at 0.01 % [1] of at least 50%.

CCO[C@@H](C(=O)N1Cc2c(NC(=O)C3([Si](C)(C)C)CCC3)n[nH]c2C1(C)C)c1ccccc1 [IV-1188, (R)—N-[5-(2-Ethoxy-2-phenylacetyl)-6,6-dimethyl-1,4,5,6-tetrahydropyrrolo[3,4-c]pyrazol-3-yl]-1-(trimethylsilyl)cyclobutanecarboxamide] showed a Ki (CDK7) of at most 50 nM and an inhibition in vivo at 0.01 % [1] of at least 50%.

CCCO[C@@H](C(=O)N1Cc2c(NC(=O)C3([Si](C)(C)C)CCC3)n[nH]c2C1(C)C)c1ccccc1 [IV-1196, (R)—N-[6,6-Dimethyl-5-(2-phenyl-2-propoxyacetyl)-1,4,5,6-tetrahydropyrrolo[3,4-c]pyrazol-3-yl]-1-(trimethylsilyl)cyclobutanecarboxamide] showed a Ki (CDK7) of at most 50 nM and an inhibition in vivo at 0.01 % [1] of at least 50%.

Work on CC(C)O[C@@H](C(=O)N1Cc2c(NC(=O)C3([Si](C)(C)C)CCC3)n[nH]c2C1(C)C)c1ccccc1 [IV-1204, (R)—N-[5-(2-Isopropoxy-2-phenylacetyl)-6,6-dimethyl-1,4,5,6-tetrahydropyrrolo[3,4-c]pyrazol-3-yl]-1-(trimethylsilyl)cyclobutanecarboxamide] yielded a Ki (CDK7) of at most 50 nM and an inhibition in vivo at 0.01 % [1] of at least 50%.

In the case of CC1(C)c2[nH]nc(NC(=O)C3([Si](C)(C)C)CCC3)c2CN1C(=O)[C@H](OC1CC1)c1ccccc1 [IV-1208, (R)—N-[5-(2-Cyclopropoxy-2-phenylacetyl)-6,6-dimethyl-1,4,5,6-tetrahydropyrrolo[3,4-c]pyrazol-3-yl]-1-(trimethylsilyl)cyclobutanecarboxamide], the Ki (CDK7) is reported as at most 50 nM and the inhibition in vivo at 0.01 % [1] is reported as at least 50%.

CO[C@@H](C(=O)N1Cc2c(NC(=O)C3([Si](C)(C)C)CCC3)n[nH]c2C1(C)C)c1ccccc1F [IV-1383, (R)—N-{5-[2-(2-Fluorophenyl)-2-methoxyacetyl]-6,6-dimethyl-1,4,5,6-tetrahydropyrrolo[3,4-c]pyrazol-3-yl}-1-(trimethylsilyl)cyclobutanecarboxamide] was tested, and the Ki (CDK7) was at most 50 nM and the inhibition in vivo at 0.01 % [1] was at least 50%.

For COC(C(=O)N1Cc2c(NC(=O)C3([Si](C)(C)C)CCC3)n[nH]c2C1(C)C)c1cccc(F)c1 (stereo not shown) [IV-1404, N-{5-[2-(3-Fluorophenyl)-2-methoxyacetyl]-6,6-dimethyl-1,4,5,6-tetrahydropyrrolo[3,4-c]pyrazol-3-yl}-1-(trimethylsilyl)cyclobutanecarboxamide], the Ki (CDK7) was at most 50 nM and the inhibition in vivo at 0.01 % [1] was at least 50%.

For COC(C(=O)N1Cc2c(NC(=O)C3([Si](C)(C)C)CCC3)n[nH]c2C1(C)C)c1cccs1 (stereo not shown) [IV-1546, N-{5-[2-Methoxy-2-(thiophen-2-yl)acetyl]-6,6-dimethyl-1,4,5,6-tetrahydropyrrolo[3,4-c]pyrazol-3-yl}-1-(trimethylsilyl)cyclobutanecarboxamide], the Ki (CDK7) was at most 50 nM and the inhibition in vivo at 0.01 % [1] was at least 50%.
